Experimental findings from PMC8204404 (Structure(London, England:1993), 2021) are described below.

The chains are these.
B1: full-length CHK1, STREP-(3C)-CHK1-HIS, treated with λ-phosphatase (enzyme)
chain: MAVPFVEDWDLVQTLGEGAYGEVQLAVNRVTEEAVAVKIVDMKRAVDCPENIKKEICINKMLNHENVVKFYGHRREGNIQYLFLEYCSGGELFDRIEPDIGMPEPDAQRFFHQLMAGVVYLHGIGITHRDIKPENLLLDERDNLKISDFGLATVFRYNNRERLLNKMCGTLPYVAPELLKRREFHAEPVDVWSCGIVLTAMLAGELPWDQPSDSCQEYSDWKEKKTYLNPWKKIDSAPLALLHKILVENPSARITIPDIKKDRWYNKPLKKGAKRPRVTSGGVSESPSGFSKHIQSNLDFSPVNSASSEENVKYSSSQPEPRTGLSLWDTSPSYIDKLVQGISFSQPTCPDHMLLNSQLLGTPGSSQNPWQRLVKRMTRFFTKLDADKSYQCLKETCEKLGYQWKKSCMNQVTISTTDRRNNKLIFKVNLLEMDDKILVDFRLSKGDGLEFKRHFLKIKGKLIDIVSSQKIWLPAT
B2: Flu-CLASPIN_pS945 peptide (peptide)
peptide: GGMEELLNLCSGKFTSQ
modifications: not fully specified
B3: Flu-CLASPIN_pT916 peptide (peptide)
peptide: GGMDELLDLCTGKFTSQ
modifications: not fully specified; fluorescein on the N-terminus; phosphothreonine at 916 (pT916)
B4: Flu-CLASPIN_pS982 peptide (peptide)
peptide: GGMEEALALCSGSFPTD
modifications: not fully specified; fluorescein on the N-terminus; phosphoserine at 982 (pS982)

Non-standard residues stand in square brackets, D forms with d. Residues, ends and D or L forms follow the SMILES beside them. No end group written: not given here. *: point of attachment. 5FAM = O=C1OC2(c3ccc(O)cc3Oc3cc(O)ccc32)c2ccc(C(=O)*)cc21; pT = C[C@@H](OP(=O)(O)O)[C@H](N)C(=O)O; pS = N[C@@H](COP(=O)(O)O)C(=O)O

The target of experiment [1] is T1, CHK1-KD (CHK1 construct consisting of only the kinase domain, CHK1(1-290)) (Homo sapiens, UniProt O14757).
T1 sequence (O14757 1-290): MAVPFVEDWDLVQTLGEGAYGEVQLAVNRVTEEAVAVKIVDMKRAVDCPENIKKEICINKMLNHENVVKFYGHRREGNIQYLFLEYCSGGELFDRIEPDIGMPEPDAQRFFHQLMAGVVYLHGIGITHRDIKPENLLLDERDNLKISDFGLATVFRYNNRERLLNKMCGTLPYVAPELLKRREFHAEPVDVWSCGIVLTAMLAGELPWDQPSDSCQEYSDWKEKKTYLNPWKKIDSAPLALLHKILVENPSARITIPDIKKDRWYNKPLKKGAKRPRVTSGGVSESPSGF
In words: Fluorescence polarization binding of CLASPIN peptides to CHK1-KD. Particulars: FP, phosphorylated peptide. (In general: In fluorescence polarisation assays a small probe gives low polarisation when free and higher when bound to something large.)

Experiment [2] concerns the target T2, CHK1-KD (CHK1 construct consisting of only the kinase domain) (Homo sapiens, UniProt O14757).
T2 sequence (O14757 1-290): T1 sequence (O14757 1-290)
Format: binding.

The target of experiment [3] is B2. The experiment in a line: fluorescence polarisation.
Experiment [4] has as its target T3, CHK1 kinase domain (CHK1-KD), STREP-(3C)-CHK1(1–290)-HIS (human, UniProt O14757 1-290).
T3 sequence: T1 sequence (O14757 1-290)
The experiment in a line: fluorescence polarisation.

For `CSCC[C@H](NC(=O)CNC(=O)CNC(=O)c1ccc2c(c1)C(=O)OC21c2ccc(O)cc2Oc2cc(O)ccc21)C(=O)N[C@@H](CCC(=O)O)C(=O)N[C@@H](CCC(=O)O)C(=O)N[C@@H](C)C(=O)N[C@@H](CC(C)C)C(=O)N[C@@H](C)C(=O)N[C@@H](CC(C)C)C(=O)N[C@@H](CS)C(=O)N[C@@H](COP(=O)(O)O)C(=O)NCC(=O)N[C@@H](CO)C(=O)N[C@@H](Cc1ccccc1)C(=O)N1CCC[C@H]1C(=O)N[C@H](C(=O)N[C@@H](CC(=O)O)C(=O)O)[C@@H](C)O` [pS982] (5FAM-GGMEEALALC[pS]GSFPTD-OH), in experiment [1], the “affinity for CHK1-KD (in words)” value is listed as “high nanomolar range”. Same read-out and setting: for `CSCC[C@H](NC(=O)CNC(=O)CNC(=O)c1ccc2c(c1)C(=O)OC21c2ccc(O)cc2Oc2cc(O)ccc21)C(=O)N[C@@H](CCC(=O)O)C(=O)N[C@@H](CCC(=O)O)C(=O)N[C@@H](CC(C)C)C(=O)N[C@@H](CC(C)C)C(=O)N[C@@H](CC(N)=O)C(=O)N[C@@H](CC(C)C)C(=O)N[C@@H](CS)C(=O)N[C@@H](COP(=O)(O)O)C(=O)NCC(=O)N[C@@H](CCCCN)C(=O)N[C@@H](Cc1ccccc1)C(=O)N[C@H](C(=O)N[C@@H](CO)C(=O)N[C@@H](CCC(N)=O)C(=O)O)[C@@H](C)O` [pS945] (5FAM-GGMEELLNLC[pS]GKFTSQ-OH) the value was “high nanomolar range”; for `CSCC[C@H](NC(=O)CNC(=O)CNC(=O)c1ccc2c(c1)C(=O)OC21c2ccc(O)cc2Oc2cc(O)ccc21)C(=O)N[C@@H](CC(=O)O)C(=O)N[C@@H](CCC(=O)O)C(=O)N[C@@H](CC(C)C)C(=O)N[C@@H](CC(C)C)C(=O)N[C@@H](CC(=O)O)C(=O)N[C@@H](CC(C)C)C(=O)N[C@@H](CS)C(=O)N[C@H](C(=O)NCC(=O)N[C@@H](CCCCN)C(=O)N[C@@H](Cc1ccccc1)C(=O)N[C@H](C(=O)N[C@@H](CO)C(=O)N[C@@H](CCC(N)=O)C(=O)O)[C@@H](C)O)[C@@H](C)OP(=O)(O)O` [pT916] (5FAM-GGMDELLDLC[pT]GKFTSQ-OH), “high nanomolar range”.

As for “MEELLNLC[pS]GKFTSQ [CLASPIN pS945 peptide]”, in experiment [2], the “effect on affinity of CHK1-KD for CDC25C substrate peptide” value is “no significant difference”. For B1, in experiment [3], the “fold lower affinity than CHK1-KD” value turned out to be 2 fold. As for B2, in experiment [4], the binding result is given as “binds”. Consider B3, for which, in experiment [4], the binding result is recorded as “binds”. With B4, the binding result in experiment [4] is listed as “binds”.
